Measured values from article PMC9138505, “Small Molecule 20S Proteasome Enhancer Regulates MYC Protein Stability and Exhibits Antitumor Activity in Multiple Myeloma” (Biomedicines, 2022).
Several values for one entry are separate records, joined by “and”; a condition that tells them apart may be missing. Identical values can stand only once.

System: RPMI-8226 cells
Test: Gene expression profiling, NanoString nCounter PanCancer Pathways Panel, ROSALIND analysis
Format: cell-based, human
Conditions: RPMI-8226, TCH-165 samples 1-3
Description: RPMI-8226 cells were treated with vehicle or TCH-165 (10 μM) for 4 h. Total RNA was obtained using the mirVana miRNA Isolation Kit, with phenol (Thermofisher Scientific; AM1560; Waltham, MA, USA). Total RNA was quantified by Qubit (Thermofisher Scientific; Q32855; Waltham, MA, USA). and gene expression was evaluated against the nCounter® PanCancer Pathways Panel^TM according to the standard NanoString protocol.
Data were analyzed by ROSALIND® [36] with a hyperscale architecture developed by ROSALIND, Inc. (San Diego, CA, USA). Normalization, fold changes and p-values were calculated using criteria provided by NanoString. ROSALIND follows the nCounter® Advanced Analysis protocol of dividing counts within a lane by the geometric mean of the normalizer probes from the same lane. Housekeeping probes to be used for normalization are selected based on the geNorm algorithm, as implemented in the NormqPCR R library. Fold changes and p-values are calculated using the fast method as described in the nCounter Advanced Analysis 2.0 User Manual. The p-value adjustment is performed using the Benjamini–Hochberg method of estimating false discovery rates (FDR). Clustering of genes for the final heatmap of differentially expressed genes was done using the PAM (Partitioning Around Medoids) method using the fpc R library. Hypergeometric distribution was used to analyze the enrichment of pathways, gene ontology, domain structure and other ontologies. The topGO R library was used to determine local similarities and dependencies between GO terms in order to perform Elim pruning correction. Several database sources were referenced for enrichment analysis, including Interpro [40], NCBI [41], MSigDB [42, 43], REACTOME [44], WikiPathways. Enrichment was calculated relative to a set of background genes relevant to the experiment.

## CCOC(=O)[C@]1(c2ccccc2)N=C(c2ccc(OC)cc2)N(Cc2ccccc2)[C@@H]1c1ccc(NCc2ccccc2)cc1 [TCH-165]
  HRAS normalized gene expression: 7.087 and 7.184 and 7.0682
  HSP90B1 normalized gene expression: 11.9809 and 12.0196 and 12.0083
  HSPA1A normalized gene expression: 6.793 and 6.667 and 6.528
  HSPA2 normalized gene expression: 5.259 and 4.962 and 5.39
  HSPA6 normalized gene expression: 8.169 and 8.132 and 8.184
  HSPB1 normalized gene expression: 10.6744 and 10.4282 and 10.4272
  IBSP normalized gene expression: 4.101 and 4.427 and 3.5707
  ID1 normalized gene expression: 7.234 and 7.077 and 7.39
  ID2 normalized gene expression: 8.252 and 8.085 and 8.156
  ID4 normalized gene expression: 5.308 and 4.962 and 4.5707
  IDH1 normalized gene expression: 8.037 and 7.944 and 8.087
  IDH2 normalized gene expression: 10.7214 and 10.6097 and 10.5399
  IFNA2 normalized gene expression: 4.793 and 5.029 and 4.876
  IFNA7 normalized gene expression: 4.208 and 3.891 and 3.653
  IFNA17 normalized gene expression: 5.445 and 5.817 and 5.712
  IFNG normalized gene expression: 4.723 and 3.739 and 3.731
  IGF1R normalized gene expression: 9.24 and 9.089 and 9.141
  IGF1 normalized gene expression: 5.686 and 5.427 and 5.0682
  IGFBP3 normalized gene expression: 11.5972 and 11.5942 and 11.578
  IKBKB normalized gene expression: 7.271 and 7.249 and 6.85
  IKBKG normalized gene expression: 8.189 and 8.037 and 8.156
  IL1A normalized gene expression: 4.208 and 4.154 and 4.0682
  IL1B normalized gene expression: 5.044 and 4.427 and 4.805
  IL1R1 normalized gene expression: 4.723 and 4.27 and 4.1271
  IL1RAP normalized gene expression: 6.044 and 5.927 and 6.0682
  IL2RA normalized gene expression: 4.571 and 4.27 and 4.291
  IL2RB normalized gene expression: 4.101 and 3.891 and 4.437
  IL3RA normalized gene expression: 6.378 and 6.614 and 6.197
  IL3 normalized gene expression: 5.61 and 4.996 and 5.211
  IL5RA normalized gene expression: 6.182 and 6.2133 and 6.211
  IL6R normalized gene expression: 6.156 and 6.045 and 5.926
  IL6 normalized gene expression: 4.308 and 3.476 and 3.0682
  IL7R normalized gene expression: 4.571 and 4.569 and 4.528
  IL7 normalized gene expression: 4.101 and 4.739 and 4.805
  IL10 normalized gene expression: 5.892 and 6.27 and 6.238
  IL11RA normalized gene expression: 4.649 and 4.476 and 3.291
  IL11 normalized gene expression: 4.208 and 4.324 and 4.341
  IL12A normalized gene expression: 2.986 and 2.739 and 2.943
  IL12B normalized gene expression: 4.86 and 4.657 and 4.613
  IL12RB2 normalized gene expression: 4.401 and 3.476 and 3.39
  IL13RA2 normalized gene expression: 3.86 and 3.962 and 3.39
  IL13 normalized gene expression: 3.986 and 4.699 and 4.653
  IL15 normalized gene expression: 3.986 and 3.962 and 4.0682
  IL19 normalized gene expression: 5.044 and 4.855 and 5.0068
  IL20RA normalized gene expression: 4.101 and 3.739 and 4.0682
  IL20RB normalized gene expression: 5.892 and 5.836 and 5.613
  IL23A normalized gene expression: 6.355 and 5.979 and 6.038
  IL24 normalized gene expression: 4.208 and 5.427 and 4.876
  INHBA normalized gene expression: 4.793 and 4.569 and 4.0682
  INHBB normalized gene expression: 5.53 and 5.927 and 5.75
  IRAK2 normalized gene expression: 5.892 and 5.524 and 5.893
  IRAK3 normalized gene expression: 5.156 and 5.029 and 4.805
  IRS1 normalized gene expression: 5.308 and 4.996 and 4.805
  ITGA2 normalized gene expression: 3.723 and 3.657 and 3.731
  ITGA3 normalized gene expression: 7.115 and 6.979 and 6.693
  ITGA6 normalized gene expression: 5.259 and 5.242 and 4.653
  ITGA7 normalized gene expression: 4.208 and 4.154 and 4.943
  ITGA8 normalized gene expression: 5.488 and 4.891 and 5.098
  ITGA9 normalized gene expression: 4.86 and 4.996 and 4.437
  ITGB3 normalized gene expression: 3.401 and 2.739 and 3.731
  ITGB4 normalized gene expression: 5.308 and 5.184 and 5.0682
  ITGB6 normalized gene expression: 5.571 and 5.2133 and 5.291
  ITGB7 normalized gene expression: 14.1153 and 14.105 and 14.0545
  ITGB8 normalized gene expression: 6.445 and 6.452 and 6.602
  JAG1 normalized gene expression: 8.08 and 7.864 and 7.85
  JAG2 normalized gene expression: 7.169 and 7.476 and 7.455
  JAK1 normalized gene expression: 9.467 and 9.41 and 9.414
  JAK2 normalized gene expression: 6.331 and 6.311 and 6.4021
  JUN normalized gene expression: 8.667 and 8.646 and 8.78
  KAT2B normalized gene expression: 7.955 and 8.18 and 8.102
  KDM5C normalized gene expression: 9.094 and 8.985 and 8.924
  KDM6A normalized gene expression: 4.401 and 4.029 and 3.943
  KIT normalized gene expression: 5.101 and 4.739 and 4.528
  KITLG normalized gene expression: 4.649 and 4.739 and 4.5707
  KLF4 normalized gene expression: 4.308 and 4.996 and 4.769
  KMT2D normalized gene expression: 8.115 and 8.314 and 8.228
  KRAS normalized gene expression: 11.0766 and 10.9767 and 10.9365
  LAMA3 normalized gene expression: 5.308 and 5.324 and 5.1271
  LAMA5 normalized gene expression: 5.986 and 5.739 and 5.693
  LAMB3 normalized gene expression: 6.234 and 6.169 and 6.1271
  LAMB4 normalized gene expression: 4.401 and 4.029 and 3.731
  LAMC2 normalized gene expression: 3.723 and 3.27 and 3.731
  LAMC3 normalized gene expression: 5.649 and 4.996 and 4.693
  LAT normalized gene expression: 5.723 and 5.927 and 5.366
  LEF1 normalized gene expression: 3.86 and 2.891 and 2.291
  LEFTY1 normalized gene expression: 5.723 and 4.855 and 5.0068
  LEFTY2 normalized gene expression: 6.571 and 6.657 and 6.814
  LEP normalized gene expression: 5.259 and 4.855 and 4.291
  LEPR normalized gene expression: 6.401 and 5.817 and 6.378
  LFNG normalized gene expression: 5.758 and 5.2133 and 4.805
  LIF normalized gene expression: 5.259 and 5.029 and 5.156
